According to patent US20120202794A1 (priority 2011, published 2012):

Legend:
HCV Replicon 1b = assay: HCV inhibition assay, HCV replicon 1b (Clone A or ET-lunet cells; RT-PCR or luciferase reporter); assay type: cell-based; settings: Hepatitis C virus, 96 h, HCV replicon 1b; 4 days incubation; read-out: Replicon 1b potency EC90
Method in brief: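 Clone A (1500/well) or ET-lunet (3000/well) replicon cells treated with serially diluted compounds (0.5% DMSO, no G418) for 4 days at 37 °C. HCV RNA measured by one-step RT-PCR normalized to rRNA (ΔΔCt) or by luciferase luminescence versus DMSO controls; EC50/EC90 by curve fitting.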

[1] = Cell cytotoxicity assay (MTS), CC90 as reported in Table 1, cell line not stated; assay type: cell-based; settings: human; MTS assay; 8 days incubation; cell line not given
Method in brief: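 Compounds, serially diluted from 100 μM, were incubated 8 days at 37° C with Huh7, HepG2 or BxPC3 (2×10^3 cells/well) or CEM (5×10^3 cells/well). Viability was read by MTS, 2 h, absorbance 490 nm. CC90 (90% inhibition) was taken against untreated cells.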

SMILES | EC90 (HCV Replicon 1b) [nM] | CC90 at 8 days [1] [nM]
CC(C)C[C@H]1C(=O)N[C@@H](C(C)C)CN1C(=O)c1noc(-c2ccc(F)cc2)n1 [Compound 295, (3S,6S)-4-(5-(4-Fluorophenyl)-1,2,4-oxadiazole-3-carbonyl)-3-isobutyl-6-isopropylpiperazin-2-one] | 320 | > 10000
CSC[C@H]1CN(C(=O)c2noc(-c3ccc(F)cc3)n2)[C@@H](CC(C)C)C(=O)N1 [Compound 296, (3S,6R)-4-(5-(4-Fluorophenyl)-1,2,4-oxadiazole-3-carbonyl)-3-isobutyl-6-((methylthio)methyl)piperazin-2-one] | 1540 | > 10000
CC(C)C[C@H]1C(=O)N[C@@H](CC2CC2)CN1C(=O)[C@@H]1C[C@H]1c1ccc(F)cc1 [Compound 297, (3S,6S)-4-[(1R,2R)-2-(4-Fluoro-phenyl)-cyclopropanecarbonyl]-6-cyclopropyl-methyl-3-isobutyl-piperazin-2-one] | 410 | > 10000
CSC[C@H]1CN(C(=O)[C@@H]2C[C@H]2c2ccc(F)cc2)[C@@H](CC(C)C)C(=O)N1 [Compound 299, (3S,6R)-4-((1R,2R)-2-(4-fluorophenyl)cyclopropanecarbonyl)-3-isobutyl-6-((methylthio)methyl)piperazin-2-one] | 630 | > 10000
CSC[C@H]1CN(C(=O)[C@@H]2C[C@H]2c2ccc(Cl)cc2)[C@@H](CC(C)C)C(=O)N1 [Compound 300, (3S,6R)-4-((1R,2R)-2-(4-Chlorophenyl)cyclopropanecarbonyl)-3-isobutyl-6-((methylthio)methyl)piperazin-2-one] | 780 | > 10000
CC(C)C[C@H]1CN(C(=O)c2noc3c2CCc2cc(F)ccc2-3)[C@@H](CC(C)C)C(=O)N1 [Compound 302, (3S,6S)-3,6-Diisobutyl-4-(7-fluoro-4,5-dihydronaphtho[2,1-d]isoxazole-3-carbonyl)piperazin-2-one] | 1410 | > 10000
CCC[C@H]1CN(C(=O)c2noc3c2CCc2cc(F)ccc2-3)[C@@H](CC(C)C)C(=O)N1 [Compound 304, (3S,6S)-4-(7-fluoro-4,5-dihydronaphtho[2,1-d]isoxazole-3-carbonyl)-3-isobutyl-6-propylpiperazin-2-one] | 640 | > 10000
CC(C)C[C@H]1C(=O)N[C@@H](C2CCCC2)CN1C(=O)c1noc2c1CCc1cc(F)ccc1-2 [Compound 305, (3S,6S)-6-cyclopentyl-4-(7-fluoro-4,5-dihydronaphtho[2,1-d]isoxazole-3-carbonyl)-3-isobutylpiperazin-2-one] | 1610 | > 10000
CC(C)C[C@H]1C(=O)N[C@@H](c2ccccc2)CN1C(=O)c1noc2c1CCc1cc(F)ccc1-2 [Compound 306, (3S,6S)-4-(7-fluoro-4,5-dihydronaphtho[2,1-d]isoxazole-3-carbonyl)-3-isobutyl-6-phenylpiperazin-2-one] | 890 | > 10000
CC(C)C[C@H]1CN(C(=O)c2cc3c(s2)-c2ccccc2OC3)[C@@H](CC(C)C)C(=O)N1 [Compound 307, (3S,6S)-3,6-diisobutyl-4-(4H-thieno[3,2-c]chromene-2-carbonyl)piperazin-2-one] | 4710 | > 10000
CC(C)C[C@H]1CN(C(=O)c2cc3c(s2)-c2cc(F)ccc2OC3)[C@@H](CC(C)C)C(=O)N1 [Compound 308, (3S,6S)-4-(8-fluoro-4H-thieno[3,2-c]chromene-2-carbonyl)-3,6-diisobutylpiperazin-2-one] | 6480 | > 10000
CC(C)C[C@H]1C(=O)N[C@@H](C(C)C)CN1C(=O)[C@@H]1C[C@H]1c1ccc(F)c(F)c1 [Compound 309, (3S,6S)-4-[(1R,2R)-2-(3,4-Difluoro-phenyl)-cyclopropanecarbonyl]-3-isobutyl-6-isopropyl-piperazin-2-one] | 780 | > 10000
CC(C)C[C@H]1C(=O)N[C@@H](C2CCCC2)CN1C(=O)[C@@H]1C[C@H]1c1ccc(C(C)(C)C)cc1 [Compound 310, (3S,6S)-4-((1R,2R)-2-(4-(tert-butyl)phenyl)cyclopropanecarbonyl)-6-cyclopentyl-3-isobutylpiperazin-2-one] | 950 | > 10000
CC(C)C[C@H]1C(=O)N[C@@H](C(C)C)CN1C(=O)[C@@H]1C[C@H]1c1ccc(C(C)(C)C)cc1 [Compound 311, (3S,6S)-4-((1R,2R)-2-(4-(tert-butyl)phenyl)cyclopropanecarbonyl)-3-isobutyl-6-isopropylpiperazin-2-one] | 1860 | > 10000
CC(C)C[C@H]1C(=O)N[C@@H](c2ccccc2)CN1C(=O)[C@@H]1C[C@H]1c1ccc(C(C)(C)C)cc1 [Compound 312, (3S,6S)-4-((1R,2R)-2-(4-(tert-butyl)phenyl)cyclopropanecarbonyl)-3-isobutyl-6-phenylpiperazin-2-one] | 1130 | > 10000
CCC[C@H]1CN(C(=O)c2cc(-c3ccc(Cl)cc3)no2)[C@@H](CC(C)C)C(=O)N1 [Compound 313, (3S,6S)-4-(3-(4-chlorophenyl)isoxazole-5-carbonyl)-3-isobutyl-6-propylpiperazin-2-one] | 390 | > 10000
CC(C)C[C@H]1C(=O)N[C@@H](C2CCCC2)CN1C(=O)c1cc(-c2ccc(Cl)cc2)no1 [Compound 314, (3S,6S)-4-(3-(4-chlorophenyl)isoxazole-5-carbonyl)-6-cyclopentyl-3-isobutyl-piperazin-2-one] | 510 | > 10000
CC(C)C[C@H]1C(=O)N[C@@H](C2CCCCC2)CN1C(=O)c1cc(-c2ccc(Cl)cc2)no1 [Compound 315, (3S,6S)-4-(3-(4-chlorophenyl)isoxazole-5-carbonyl)-6-cyclohexyl-3-isobutylpiperazin-2-one] | 700 | > 10000
CC(C)C[C@H]1C(=O)N[C@@H](c2ccccc2)CN1C(=O)c1cc(-c2ccc(Cl)cc2)no1 [Compound 316, (3S,6S)-4-(3-(4-chlorophenyl)isoxazole-5-carbonyl)-3-isobutyl-6-phenylpiperazin-2-one] | 280 | > 10000
CC(C)CC1=CN(C(=O)c2cc(-c3ccc(F)cc3)on2)[C@@H](CC(C)C)C(=O)N1 [Compound 317, (S)-4-(5-(4-Fluorophenyl)isoxazole-3-carbonyl)-3,6-diisobutyl-3,4-dihydro-pyrazin-2(1H)-one] | 280 | > 10000
CC(C)C[C@H]1C(=O)N(C)[C@@H](c2ccccc2)CN1C(=O)c1cc(-c2ccc(F)cc2)on1 [Compound 321, (3S,6S)-4-(5-(4-fluorophenyl)isoxazole-3-carbonyl)-3-isobutyl-1-methyl-6-phenylpiperazin-2-one] | 6450 | > 10000
CCN1C(=O)[C@H](CC(C)C)N(C(=O)c2cc(-c3ccc(F)cc3)on2)C[C@@H]1c1ccccc1 [Compound 322, (3S,6S)-1-ethyl-4-(5-(4-fluorophenyl)isoxazole-3-carbonyl)-3-isobutyl-6-phenylpiperazin-2-one] | > 10000 | > 10000
CCCN1C(=O)[C@H](CC(C)C)N(C(=O)c2cc(-c3ccc(F)cc3)on2)C[C@@H]1c1ccccc1 [Compound 323, (3S,6S)-4-(5-(4-fluorophenyl)isoxazole-3-carbonyl)-3-isobutyl-6-phenyl-1-propylpiperazin-2-one] | > 10000 | > 10000
CC(C)C[C@H]1C(=O)N[C@@H](C2CCCC2)CN1C(=O)[C@@H]1C[C@H]1c1ccc(F)cc1F [Compound 325, (3S,6S)-6-cyclopentyl-4-((1R,2R)-2-(2,4-difluorophenyl)cyclopropanecarbonyl)-3-isobutylpiperazin-2-one] | > 10000 | > 10000
CC(C)C[C@H]1C(=O)N[C@@H](C2CCCCC2)CN1C(=O)[C@@H]1C[C@H]1c1ccc(F)cc1F [Compound 326, (3S,6S)-6-cyclohexyl-4-((1R,2R)-2-(2,4-difluorophenyl)cyclopropanecarbonyl)-3-isobutylpiperazin-2-one] | > 10000 | > 10000
CC(C)C[C@H]1C(=O)N[C@@H](c2ccccc2)CN1C(=O)[C@@H]1C[C@H]1c1ccc(F)cc1F [Compound 327, (3S,6S)-4-[(1R,2R)-2-(2,4-difluoro-phenyl)-cyclopropanecarbonyl]-3-isobutyl-6-phenyl-piperazin-2-one] | 7210 | > 10000
CC(C)C[C@H]1C(=O)N[C@@H](C2CCCCC2)CN1C(=O)[C@@H]1C[C@H]1c1ccc(C(C)(C)C)cc1 [Compound 328, (3S,6S)-4-((1R,2R)-2-(4-(tert-butyl)phenyl)cyclopropanecarbonyl)-6-cyclohexyl-3-isobutylpiperazin-2-one] | 2430 | > 10000
CC(C)C[C@H]1CN(C(=O)[C@@H]2C[C@H]2c2ccc(Br)cc2)[C@@H](CC(C)C)C(=O)N1 [Compound 329, (3S,6S)-4-((1R,2R)-2-(4-bromophenyl)cyclopropanecarbonyl)-3,6-diisobutylpiperazin-2-one] | 520 | > 10000
CCC[C@H]1CN(C(=O)[C@@H]2C[C@H]2c2ccc(Br)cc2)[C@@H](CC(C)C)C(=O)N1 [Compound 331, (3S,6S)-4-[(1R,2R)-2-(4-Bromo-phenyl)-cyclopropanecarbonyl]-3-isobutyl-6-propyl-piperazin-2-one] | 560 | > 10000
CC(C)C[C@H]1C(=O)N[C@@H](c2ccccc2)CN1C(=O)[C@@H]1C[C@H]1c1ccc(Br)cc1 [Compound 333, (3S,6S)-4-[(1R,2R)-2-(4-bromo-phenyl)-cyclopropanecarbonyl]-3-isobutyl-6-phenyl-piperazin-2-one] | 646 | > 10000
